The values that follow come from paper PMC5937080, “Design, Synthesis and Biological Evaluation of Novel Peptide-Like Analogues as Selective COX-2 Inhibitors” (Iranian Journal of Pharmaceutical Research : IJPR, 2018).

One assay has as its target T1, COX-1 (Ovis aries, UniProt P05979).
T1 construct: purchased Cayman chemical, MI, USA
T1 sequence (P05979 25-600): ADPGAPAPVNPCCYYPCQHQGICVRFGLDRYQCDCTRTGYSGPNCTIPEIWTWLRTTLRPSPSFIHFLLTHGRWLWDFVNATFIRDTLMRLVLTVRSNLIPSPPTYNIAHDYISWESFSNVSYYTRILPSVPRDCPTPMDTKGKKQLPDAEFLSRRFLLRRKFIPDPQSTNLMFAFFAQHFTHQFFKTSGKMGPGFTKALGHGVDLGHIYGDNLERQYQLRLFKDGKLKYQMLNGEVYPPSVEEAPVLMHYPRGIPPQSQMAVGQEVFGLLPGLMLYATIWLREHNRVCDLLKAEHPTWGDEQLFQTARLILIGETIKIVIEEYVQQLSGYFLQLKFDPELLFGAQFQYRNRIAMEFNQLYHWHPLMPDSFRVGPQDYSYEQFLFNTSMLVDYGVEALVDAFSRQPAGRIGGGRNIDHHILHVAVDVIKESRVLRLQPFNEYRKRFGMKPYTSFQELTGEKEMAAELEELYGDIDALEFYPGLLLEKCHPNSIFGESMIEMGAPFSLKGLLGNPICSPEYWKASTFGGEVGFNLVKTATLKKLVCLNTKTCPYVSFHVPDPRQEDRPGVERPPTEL
The assay can be described thus: biochemical. The following applies: ovine COX-1/COX-2 assay kit; mean of two determinations, deviation < 10% of the mean. Here is the method: (§1) In-vitro cyclooxygenase (COX) inhibition assays
(§2) The assay was performed using an enzyme chemiluminescent kit (Cayman chemical, MI, USA) according to the previously reported method ([17]).

The target of the next assay is T2, COX-2 (Ovis aries, UniProt P79208).
T2 construct: purchased Cayman chemical, MI, USA
T2 sequence (P79208 17-603): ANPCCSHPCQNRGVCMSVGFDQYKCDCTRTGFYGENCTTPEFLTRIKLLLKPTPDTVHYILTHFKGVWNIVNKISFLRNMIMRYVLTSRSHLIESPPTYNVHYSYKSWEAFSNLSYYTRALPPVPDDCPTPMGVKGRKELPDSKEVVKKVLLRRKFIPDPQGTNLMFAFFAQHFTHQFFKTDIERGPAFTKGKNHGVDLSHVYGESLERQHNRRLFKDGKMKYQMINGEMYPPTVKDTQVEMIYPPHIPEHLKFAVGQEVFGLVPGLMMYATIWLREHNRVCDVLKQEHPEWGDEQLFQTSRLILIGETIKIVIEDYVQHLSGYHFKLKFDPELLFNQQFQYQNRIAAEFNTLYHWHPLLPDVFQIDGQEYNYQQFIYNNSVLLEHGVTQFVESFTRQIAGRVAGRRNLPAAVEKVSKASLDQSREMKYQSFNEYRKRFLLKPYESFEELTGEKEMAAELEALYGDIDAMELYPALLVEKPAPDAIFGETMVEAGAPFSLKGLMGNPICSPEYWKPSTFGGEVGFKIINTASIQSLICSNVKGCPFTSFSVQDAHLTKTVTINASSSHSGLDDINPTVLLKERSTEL
Put plainly: biochemical. Conditions: for IC50: ovine COX-1/COX-2 assay kit, mean of two determinations, deviation < 10% of the mean. Here is the method: as §1, §2

For `[N-]=[N+]=Nc1ccc(C(=O)NC(Cc2c[nH]c3ccccc23)C(=O)O)cc1` (centres unmarked) [Compound 4d, p-N3Bz -Trp], the half-inhibitory concentration (IC50) against COX-1 and at COX-2 was more than 100 µM throughout.
On COX-1, `CS(=O)(=O)c1ccc(C(=O)NC(Cc2c[nH]c3ccccc23)C(=O)O)cc1` (stereo not drawn) [Compound 4c, p-MeSO2Bz -Trp] came in with an IC50 of 16.6 µM. For the same molecule, at COX-2, the “S.I. In-vitro COX-2 selectivity index (COX-1 IC50/COX-2 IC50)” value is 184.4 and the IC50 is 0.09 µM.
Regarding `CS(=O)(=O)c1ccc(C(=O)NC(Cc2ccccc2)C(=O)O)cc1` (centres unmarked) [Compound 1c, p-(methylsulfonyl)benzoyl-phenylalanine], the IC50 at COX-1 and against COX-2 was more than 100 µM in each case.
With `CS(=O)(=O)c1ccc(C(=O)NC(Cc2ccc(O)cc2)C(=O)O)cc1` (stereo not drawn) [Compound 3c, p-MeSO 2 Bz -Tyr], at COX-1, the 50% inhibitory concentration (IC50) worked out at 25.2 µM. In addition, at COX-2, the “S.I. In-vitro COX-2 selectivity index (COX-1 IC50/COX-2 IC50)” value was 109.6 and the IC50 came out at 0.23 µM.
The like results for `[N-]=[N+]=Nc1ccc(C(=O)NC(Cc2ccc(O)cc2)C(=O)O)cc1` (centres unmarked) [Compound 3d, p-N3Bz -Tyr] were, in that order, 20.9 µM, 2.1 and 10.1 µM.
With `[N-]=[N+]=Nc1ccc(C(=O)NC(Cc2ccccc2)C(=O)O)cc1` (centres unmarked) [Compound 1d, p-azidobenzoyl-phenylalanine], the 50% inhibitory concentration (IC50) was 55.5 µM against COX-1 and more than 100 µM on COX-2.
At COX-1, `[N-]=[N+]=Nc1ccc(C(=O)NC(Cc2c[nH]cn2)C(=O)O)cc1` (centres unmarked) [Compound 2d, p-N3Bz -His] came in with an IC50 of 28.1 µM. Further, on COX-2, the “S.I. In-vitro COX-2 selectivity index (COX-1 IC50/COX-2 IC50)” value amounted to 351.2 and the IC50 was 0.08 µM.
Take `CS(=O)(=O)c1ccc(C(=O)NC(Cc2cnc[nH]2)C(=O)O)cc1` (stereo not drawn) [Compound 2c, p-MeSO2Bz -His]: the IC50 at COX-1 and against COX-2 was more than 100 µM throughout.
